# “And” between values parts separate entries of the source, which are not always exact repeats. Identical values can stand only once. Like-named read-outs stand apart in the source and are kept apart here. Marks after values point to notes of the source that are not given here.
# Tests used:
# [1] = test system: mesencephalic dopaminergic neurons; format: cell-based, rat; settings: for TH-immunoreactive cell survival, Mean: 48 hours
# Excerpt: Effects of Jnk Inhibition on Dopaminergic Neuronal Survival, In Vitro Following Treatment with the Neurotoxin MPP^+.
# This protocol produces a yield of dopaminergic neurons of around 0.5-1%; this is equivalent to roughly 1000-1500 dopaminergic cells in the well. 14 day gestation Sprague-Dawley rats were killed by stunning and exsanguination. Embryos were removed and decapitated, and the ventral mesencephalon dissected from the brain. The tissue was dissociated by trypsin (0.25% in Hank's BSS) digestion for 20 minutes. The trypsin was neutralized by addition of an excess of serum containing medium and the cells centrifuged at 1000 rpm for 10 minutes. The cell pellet was resuspended in DMEM/10% FCS, and a single cell suspension prepared by mechanical dissociation and passage through a 70 μm cell strainer. Trypan blue excluding cells were counted in a haemocytometer, and cells were plated into poly-D-lysine treated 8-well chamber slides at a density of 2×10^5 cells/well in Dulbecco's MEM supplemented with 10% FCS. Cultures were incubated for 24 hours at 37° C./5% CO2, then the medium was replaced with DMEM supplemented with SATO (final concentration; 4.3 mg/ml BSA, 0.77 μg/ml progesterone, 20 μg/ml putrescine, 0.49 μg/ml L-thyroxine, 0.048 μg/ml selenium and 0.42 μg/ml tri-iodo-thyronine).
# Cultures were incubated for 5 days, then removed from the incubator and treated with compounds. Jnk inhibitors were added at concentrations ranging from 1 nM to 1 μM to 4 independent wells per concentration. 15 minutes following addition of Jnk inhibitors, MPP^+ was added directly to the wells to give a final concentration in the well of 10 μM. 4 wells were treated with MPP^+ 10 μM alone, and 4 left as untreated controls. zVAD-fmk 300 μM and Example 2 500 nM were used as positive controls. Once compounds and MPP^+ had been added, cultures were returned to the incubator at 37° C./5% CO2 for a further 48 hours prior to fixation and immunostaining.
# To determine the numbers of surviving dopaminergic neurons, immunocytochemistry was carried out using a rabbit polyclonal antibody raised against TH. Non-specific binding sites were blocked using 10% normal goat serum in PBS, then primary antibody was added at 4° C. overnight. The next day, the cells were washed and treated with biotin conjugated goat anti-rabbit IgG for one hour, followed by peroxidase conjugated avidin biotin complex, both made up from the Vectastain® Elite ABC kit (Vector Laboratories, Burlingame, Calif.) according to the manufacturer's instructions. Staining was visualized using Vector™ SG (Vector Laboratories) insoluble peroxidase substrate according to the manufacturer's instructions. Following staining, the gaskets were removed from the chamber slides, and the slides mounted using aqueous mountant. Slides were blinded by another investigator before quantification of TH-immunoreactive cell survival. To determine TH-immunoreactive cell survival, cells were visualized using transmitted light on a Zeiss Axiovert inverted microscope using a 10X objective. Counts were made of all the TH-immunoreactive cells present in each well.
# Data analysis was performed using a one way analysis of variance, followed by Dunnett's t-test. In each case the data refer to one representative experiment, with four independent replicates for each data point. […] Data shown are normalized to percentage of control response; all statistical analyses, however, were carried out on the cell counts.
# JNK3α1 = molecular target: T1, JNK3α1 (Homo sapiens, UniProt P53779); experiment: Biochemical determination of inhibition of JNK3α1; settings: truncated JNK3α1, 1 μM ATP, 0.5 μM GST-ATF2, 30° C., 30 min
# T1 construct: Truncated JNK3α1 (amino acids 39-422) was expressed in E. coli; made in house; host or cells: E. coli
# Method: Activation reactions were incubated at 30° C. for 2 h.
# Enzyme inhibition studies were performed at 30° C. for 30 min with 0.5 μM GST-ATF2, 1 μM ATP, 1 nM activated JNK3α1 and compound ranging from 30 pM to 100 μM. Reactions were carried out in 100 μL volumes containing the final concentrations of the following: 25 mM HEPES (Sigma) pH 7.4; 10 mM MgCl2 (Sigma); 2 mM DTT (Sigma); 20 mM β-glycerophosphate (Sigma); 0.1 mM Na3VO4 (Sigma); 2 μCi [γ-^33P]ATP (2000 Ci/mmol; 1 Ci=37 GBq) (Amersham Pharmacia Biotech, Piscataway, N.J.). Reactions were stopped with 100 μL 100 mM EDTA/15 mM sodium pyrophosphate. Immobilon™-P 96-well plates (Millipore MAIPNOB™ 10, available from the Millipore Corp., Bedford, Mass.) were pretreated with 100 μL methanol, followed by 100 μL 15 mM sodium pyrophosphate. Fifty μL of the stopped reaction was spotted in triplicate on the Immobilon™-P 96-well plate. The samples were vacuum-filtered and washed three times each with 100 μL 75 mM H3PO4 to remove unincorporated [γ-^33P]ATP. After the third H3PO4 wash and a final filtration step to remove H3PO4, 50 μL of Microscint™-20 (Packard BioScience Ltd., Pangbourne, Berkshire, U.K.) was added to each well and samples were analyzed on a Packard Topcount™ liquid scintillation counter. IC50 values were determined by fitting the data to the equation for a four parameter logistic.
# T1 sequence (P53779 39-422 isoform P53779-2): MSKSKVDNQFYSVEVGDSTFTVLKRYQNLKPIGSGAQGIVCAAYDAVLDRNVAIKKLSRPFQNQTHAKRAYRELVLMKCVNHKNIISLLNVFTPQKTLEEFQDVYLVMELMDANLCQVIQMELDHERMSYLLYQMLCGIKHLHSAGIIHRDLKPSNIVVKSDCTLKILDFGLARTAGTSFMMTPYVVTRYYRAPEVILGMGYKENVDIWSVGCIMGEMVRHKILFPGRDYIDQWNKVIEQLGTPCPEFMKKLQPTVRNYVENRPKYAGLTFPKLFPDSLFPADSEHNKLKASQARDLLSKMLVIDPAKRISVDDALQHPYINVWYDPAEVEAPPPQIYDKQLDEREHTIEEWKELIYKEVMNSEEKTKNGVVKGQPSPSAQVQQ
compound,measurement,setting,value
"CCCn1c(C2CCN(C)CC2)nc(-c2ccc(Cl)c(Cl)c2)c1-c1ccnc(NC2CC2)n1 [Example 2, Cyclopropyl-{4-[5-(3,4-dichlorophenyl)-2-[(1-methyl)-piperidin]-4-yl-3-propyl-3H-imidazol-4-yl]-pyrimidin-2-yl}amine]","TH-immunoreactive cell survival, Mean",[1]; 1 nM + MPP+ 10 μM,54.72 % of untreated control
same,"TH-immunoreactive cell survival, Mean",[1]; 10 nM + MPP+ 10 μM,60.77* % of untreated control
same,"TH-immunoreactive cell survival, Mean",[1]; 100 nM + MPP+ 10 μM,59.95* % of untreated control
same,"TH-immunoreactive cell survival, Mean",[1]; 500 nM + MPP+ 10 μM,72 % of untreated control and 72.41** % of untreated control
same,"TH-immunoreactive cell survival, Mean",[1]; 1 μM + MPP+ 10 μM,71.14** % of untreated control
same,"TH-immunoreactive cell survival, Mean",[1]; 10 μM + MPP+ 10 μM,32.08 % of untreated control
same,Non-specific toxicity,[1]; 10 μM treatment,Non-specific toxicity is observed
same,Concentrations giving significant increases in survival,"[1]; MPP+ 10 μM, p<0.05",≥ 10 nM
same,IC50,JNK3α1,7 nM

# Reference: US20020032183A1, “Use of (di-substituted-phenyl)-pyrimidinyl-imidazole derivatives as JNK-inhibitors” (priority 2000, published 2002)
